Data on 61 compounds can be found in the Kinase Knowledgebase extract (Sharma et al. 2016).

One may read the IC50 as the point on the concentration scale where inhibition reaches its midpoint. A lower IC50 goes with greater potency in that assay. By inhibition is commonly meant the drop in the measured response relative to a control, in per cent. The low end stands for a weak effect, the high end for a strong effect.

Chain of MAPK14 (human) (Q16539 whole entry, looked up): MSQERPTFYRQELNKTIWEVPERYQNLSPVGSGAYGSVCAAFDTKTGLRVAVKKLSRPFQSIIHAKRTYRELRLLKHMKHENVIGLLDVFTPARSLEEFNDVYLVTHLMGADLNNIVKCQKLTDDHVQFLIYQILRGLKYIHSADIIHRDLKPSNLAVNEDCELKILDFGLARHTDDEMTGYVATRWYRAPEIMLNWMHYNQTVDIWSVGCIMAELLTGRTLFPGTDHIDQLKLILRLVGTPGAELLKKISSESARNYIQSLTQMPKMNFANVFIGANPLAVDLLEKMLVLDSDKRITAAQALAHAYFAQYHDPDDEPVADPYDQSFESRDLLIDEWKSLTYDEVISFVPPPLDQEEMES

The first assay has as its target MAPK14 (human) (UniProt Q16539). The assay is described as follows: Inhibition of MAPK14 Kinase Activity by PHAS-I Assay.
Settings: not given
On to `COc1ccc(-c2[nH]nc(C)c2-c2ccncc2)cc1Cl`, for which the IC50 stood at 100 nM. `COCC(=O)N[C@H]1CC[C@@H](c2[nH]nc(-c3ccc(Cl)cc3)c2-c2ccncc2)CC1` displayed an IC50 of 77 nM. On to `O=S(=O)(NCc1[nH]nc(-c2ccc(F)cc2)c1-c1ccncc1)c1ccc2ccccc2c1`, for which the half-inhibitory concentration (IC50) turned out to be 280 nM.

`Clc1ccc(-c2n[nH]c(N3CCSCC3)c2-c2ccncc2)cc1` showed an IC50 of 770 nM. Regarding `N#CCNc1[nH]nc(-c2ccc(F)cc2)c1-c1ccncc1`, the IC50 worked out at 17 nM. On the same count and under the same terms, the value for `COc1ccccc1C(=O)N1CCC(c2[nH]nc(-c3ccc(F)cc3)c2-c2ccncc2)CC1` was < 100 nM.

For the compound `O=C(Nc1ccccc1F)N[C@@H](Cc1ccccc1)c1[nH]nc(-c2ccc(F)cc2)c1-c1ccncc1`, the 50% inhibitory concentration (IC50) stood at 14000 nM.

In turn, `COc1cccc(C(=O)N[C@@H](C)c2[nH]nc(-c3ccc(F)cc3)c2-c2ccncc2)c1` had a 50% inhibitory concentration (IC50) of 1370 nM. Same read-out and setting: to `CNCCCNC(=O)CSc1[nH]nc(-c2ccc(Cl)cc2)c1-c1ccncc1` belongs 1660 nM.

Still in this assay, the particulars now being: concentration not given here.
`COc1ccc2nc(NC(=O)Cn3nc(-c4ccc(F)cc4)c(-c4ccncc4)c3C)sc2c1` displayed an inhibition of 86%. `Cc1c(-c2ccncc2)c(-c2ccc(F)cc2)nn1CC(=O)Nc1c(Cl)cccc1Cl` came in with an inhibition of 89%. Same read-out and setting: the value for `O=C(NCCCc1[nH]nc(-c2ccc(F)cc2)c1-c1ccncc1)NCc1ccccc1` was 82%. Compound `CCNC(=O)NCCCc1[nH]nc(-c2ccc(F)cc2)c1-c1ccncc1` came in with an inhibition of 89%. On to `Cc1c(-c2ccncc2)c(-c2ccc(F)cc2)nn1CC(=O)N1CCSC1c1ccco1` (stereo unspecified), for which the inhibition was 78%. Same read-out and setting: the value for `CCCNC(=O)NCCCc1[nH]nc(-c2ccc(F)cc2)c1-c1ccncc1` was 88%. The same measure, in the same setting: the value for `CSc1ccccc1NC(=O)Cn1nc(-c2ccc(F)cc2)c(-c2ccncc2)c1C` was 82%; that for `O=C(NCCCc1[nH]nc(-c2ccc(F)cc2)c1-c1ccncc1)NCCc1ccccc1` was 82%; that for `Cc1c(-c2ccncc2)c(-c2ccc(F)cc2)nn1CC(=O)Nc1ccc(Cl)nc1` was 94%. Still for that read-out and setting: the value for `Cc1c(-c2ccncc2)c(-c2ccc(F)cc2)nn1CC(=O)NC1CC1` was 75%; that for `Cc1ccc(S(=O)(=O)NCCCc2[nH]nc(-c3ccc(F)cc3)c2-c2ccncc2)cc1` was 68%; that for `Cc1c(-c2ccncc2)c(-c2ccc(F)cc2)nn1CC(=O)Nc1ccccc1C(=O)NC(C)c1ccccc1` (stereo unspecified) was 86%. As for `CCCN(CCC)CC(C)NC(=O)Cn1nc(-c2ccc(F)cc2)c(-c2ccncc2)c1C` (stereo unspecified), the inhibition stood at 17%. The same measure, in the same setting: to `Cc1c(-c2ccncc2)c(-c2ccc(F)cc2)nn1CC(=O)NC1CCC(C(C)(C)C)CC1` (stereo unspecified) belongs 38%. The same measure, in the same setting: to `O=C(NCCCc1[nH]nc(-c2ccc(F)cc2)c1-c1ccncc1)c1ccc(F)cc1` belongs 64%; to `Cc1c(-c2ccncc2)c(-c2ccc(F)cc2)nn1CC(=O)Nc1ccc(CSc2ccc(Cl)cc2)cc1`, 67%; to `Cc1c(-c2ccncc2)c(-c2ccc(F)cc2)nn1CC(=O)Nc1ccc(-n2ccc(C(F)(F)F)n2)cc1`, 87%. The same measure, in the same setting: the value for `COc1ccc(NC(=O)NCCc2[nH]nc(-c3ccc(F)cc3)c2-c2ccncc2)c(OC)c1` was 49%; that for `Cc1c(-c2ccncc2)c(-c2ccc(F)cc2)nn1CC(=O)N1CCCC1` was 73%. `CCN(Cc1c(F)cccc1Cl)C(=O)Cn1nc(-c2ccc(F)cc2)c(-c2ccncc2)c1C`: the inhibition came to 46%. On the same count and under the same terms, to `CCOC(=O)NCCCc1[nH]nc(-c2ccc(F)cc2)c1-c1ccncc1` belongs 94%; to `Cc1c(-c2ccncc2)c(-c2ccc(F)cc2)nn1CC(=O)N(C)CCc1ccncc1`, 38%; to `O=S(=O)(NCc1[nH]nc(-c2ccc(F)cc2)c1-c1ccncc1)c1cc(Br)c(Br)s1`, 77%. On the same count and under the same terms, the value for `CS(=O)(=O)NCCCc1[nH]nc(-c2ccc(F)cc2)c1-c1ccncc1` was 84%; that for `O=C(NCCCc1[nH]nc(-c2ccc(F)cc2)c1-c1ccncc1)c1ccncc1` was 77%. On the same count and under the same terms, to `O=S(=O)(NCCCc1[nH]nc(-c2ccc(F)cc2)c1-c1ccncc1)c1ccccc1F` belongs 77%. `COc1ccc(CCN(CCC#N)C(=O)Cn2nc(-c3ccc(F)cc3)c(-c3ccncc3)c2C)cc1OC` registered an inhibition of 72%. On the same count and under the same terms, to `O=C(NCCCc1[nH]nc(-c2ccc(F)cc2)c1-c1ccncc1)c1ccccc1I` belongs 66%; to `Cc1c(-c2ccncc2)c(-c2ccc(F)cc2)nn1CC(=O)N1CCCCC1`, 78%. On the same count and under the same terms, the value for `O=C(NCCCc1[nH]nc(-c2ccc(F)cc2)c1-c1ccncc1)c1ccccn1` was 69%; that for `Cc1c(-c2ccncc2)c(-c2ccc(F)cc2)nn1CC(=O)NC1CCN(Cc2ccccc2)CC1` was 70%. On the same count and under the same terms, the value for `Cc1c(-c2ccncc2)c(-c2ccc(F)cc2)nn1CC(=O)N(C)CC(N)=O` was 60%; that for `COc1cccc(CC(=O)NCCCc2[nH]nc(-c3ccc(F)cc3)c2-c2ccncc2)c1` was 92%; that for `Cc1c(-c2ccncc2)c(-c2ccc(F)cc2)nn1CC(=O)N(CCC#N)CC1CCCO1` (stereo unspecified) was 58%. `CCN(CC)C(=O)NCCCc1[nH]nc(-c2ccc(F)cc2)c1-c1ccncc1`: the inhibition worked out at 89%. In the case of `CC(C)(C)C(=O)NCCCc1[nH]nc(-c2ccc(F)cc2)c1-c1ccncc1`, the inhibition is 87%.

Take `Cc1c(-c2ccncc2)c(-c2ccc(F)cc2)nn1CC(=O)NC1CCC1`: the inhibition is 81%.

For `Cc1c(-c2ccncc2)c(-c2ccc(F)cc2)nn1CC(=O)Nc1cc(F)cc(F)c1`, the inhibition was found to be 75%.

Turning to `CC(C)COC(=O)NCCc1[nH]nc(-c2ccc(F)cc2)c1-c1ccncc1`, the inhibition worked out at 75%. For the compound `O=S(=O)(Cc1ccccc1)NCCCc1[nH]nc(-c2ccc(F)cc2)c1-c1ccncc1`, the inhibition was found to be 87%. The same measure, in the same setting: the value for `COc1ccc(NC(=O)NCCCc2[nH]nc(-c3ccc(F)cc3)c2-c2ccncc2)cc1` was 82%; that for `Cc1c(-c2ccncc2)c(-c2ccc(F)cc2)nn1CC(=O)NC(C)CCc1ccccc1` (stereo unspecified) was 35%; that for `Cc1c(-c2ccncc2)c(-c2ccc(F)cc2)nn1CC(=O)NC1CCN(Cc2ccccc2)C1` (stereo unspecified) was 73%.

`COC(=O)C(Cc1ccc([N+](=O)[O-])cc1)NC(=O)Cn1nc(-c2ccc(F)cc2)c(-c2ccncc2)c1C` (stereo unspecified) registered an inhibition of 75%. Still for that read-out and setting: the value for `O=C(NCCCc1[nH]nc(-c2ccc(F)cc2)c1-c1ccncc1)c1cccc(Br)c1` was 70%. In turn, `CN(C)C(=O)NCCCc1[nH]nc(-c2ccc(F)cc2)c1-c1ccncc1` showed an inhibition of 90%. The compound `NC(=O)NCCCc1[nH]nc(-c2ccc(F)cc2)c1-c1ccncc1` gave an inhibition of 90%. Same read-out and setting: the value for `CC(=O)Nc1ccc(S(=O)(=O)NCc2[nH]nc(-c3ccc(F)cc3)c2-c2ccncc2)cc1` was 66%; that for `Cc1c(-c2ccncc2)c(-c2ccc(F)cc2)nn1CC(=O)NC(C)c1ccc(Br)cc1` (stereo unspecified) was 71%; that for `O=C(NCCCc1[nH]nc(-c2ccc(F)cc2)c1-c1ccncc1)Nc1ccc(F)cc1` was 88%. On the same count and under the same terms, to `COCC(=O)NCCCc1[nH]nc(-c2ccc(F)cc2)c1-c1ccncc1` belongs 78%.

`CCCCCCCOc1ccc(NC(=O)Cn2nc(-c3ccc(F)cc3)c(-c3ccncc3)c2C)cc1` returned an inhibition of 89%.
